Data set [1] has as its system Mus musculus. Description: Anti-inflammatory activity in Mus musculus Swiss albino (mouse) assessed as inhibition of carrageenan-induced edema at 10 mg/kg, po pretreated 60 min before carrageenan-challenge measured after 180 min. Format: functional. In general terms: In the carrageenan paw model, swelling and tenderness develop within hours.
In data set [2] the test system is Mus musculus. Description: Anti-inflammatory activity in Mus musculus Swiss albino (mouse) assessed as inhibition of carrageenan-induced edema at 10 mg/kg, po pretreated 60 min before carrageenan-challenge measured after 90 min. Format: functional.
Data set [3] concerns Mus musculus. Description: Anti-inflammatory activity in Mus musculus Swiss albino (mouse) assessed as inhibition of carrageenan-induced edema at 10 mg/kg, po pretreated 60 min before carrageenan-challenge measured after 360 min. The data set is classed as functional.
The test system of data set [4] is Mus musculus. Description: Anti-inflammatory activity in Mus musculus Swiss albino (mouse) assessed as inhibition of carrageenan-induced edema at 10 mg/kg, po pretreated 60 min before carrageenan-challenge measured after 270 min. The data set is classed as functional.
Data set [5] relates to Mus musculus. Description: Anti-inflammatory activity in Mus musculus Swiss albino (mouse) assessed as inhibition of carrageenan-induced edema at 100 mg/kg, po pretreated 60 min before carrageenan-challenge measured after 180 min. The data set is classed as functional.
The target in data set [6] is T1, Prostaglandin G/H synthase 2 (Homo sapiens) (UniProt P35354).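 Also: human whole blood COX-2 activity read out as PGE2 level measured by enzyme immunoassay.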
T1 sequence (whole entry): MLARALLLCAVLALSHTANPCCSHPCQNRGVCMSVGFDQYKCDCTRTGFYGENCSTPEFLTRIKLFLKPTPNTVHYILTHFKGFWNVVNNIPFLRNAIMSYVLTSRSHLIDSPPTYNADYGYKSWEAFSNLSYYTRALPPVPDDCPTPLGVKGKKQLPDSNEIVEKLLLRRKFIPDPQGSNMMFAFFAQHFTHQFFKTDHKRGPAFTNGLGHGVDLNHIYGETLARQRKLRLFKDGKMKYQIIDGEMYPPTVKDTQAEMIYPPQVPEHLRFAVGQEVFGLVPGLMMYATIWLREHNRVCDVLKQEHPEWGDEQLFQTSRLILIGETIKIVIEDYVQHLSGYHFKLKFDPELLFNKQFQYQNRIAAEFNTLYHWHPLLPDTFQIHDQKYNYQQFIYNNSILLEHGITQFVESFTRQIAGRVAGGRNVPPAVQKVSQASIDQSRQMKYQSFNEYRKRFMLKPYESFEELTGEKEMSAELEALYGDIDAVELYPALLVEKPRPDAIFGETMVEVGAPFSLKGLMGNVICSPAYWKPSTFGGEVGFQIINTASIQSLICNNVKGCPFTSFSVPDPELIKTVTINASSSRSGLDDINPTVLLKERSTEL
The following applies: Blood, at 10 µM.
Description: Inhibition of cyclooxygenase-2 in Homo sapiens (human) whole blood assessed as PGE2 level at 10 uM by EIA

In data set [7] the test system is Mus musculus. Description: Analgesic activity in Mus musculus Swiss albino (mouse) assessed as inhibition of p-benzoquinone-induced writhing at 100 mg/kg, po pretreated 60 min before p-benzoquinone challenge. Format: functional.
The test system of data set [8] is Mus musculus. Description: Gastrointestinal toxicity in Mus musculus Swiss albino (mouse) assessed as ratio of ulcer at 100 mg/kg, po measured after 2 hr. Format: organism-based. More on the design: dose 100 mg/kg, route oral. The settings on record: in vivo.
For data set [9], the target named is Prostaglandin G/H synthase 1 (Homo sapiens) (UniProt P23219). The following applies: Blood, at 10 µM.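 Also: human whole blood assay, COX-1 activity read out as TXB2 level by enzyme immunoassay.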
Description: Inhibition of cyclooxygenase-1 in Homo sapiens (human) whole blood assessed as TXB2 level at 10 uM by EIA
In data set [10] the target is T2, Polyunsaturated fatty acid 5-lipoxygenase (Homo sapiens) (UniProt P09917).
T2 sequence (whole entry): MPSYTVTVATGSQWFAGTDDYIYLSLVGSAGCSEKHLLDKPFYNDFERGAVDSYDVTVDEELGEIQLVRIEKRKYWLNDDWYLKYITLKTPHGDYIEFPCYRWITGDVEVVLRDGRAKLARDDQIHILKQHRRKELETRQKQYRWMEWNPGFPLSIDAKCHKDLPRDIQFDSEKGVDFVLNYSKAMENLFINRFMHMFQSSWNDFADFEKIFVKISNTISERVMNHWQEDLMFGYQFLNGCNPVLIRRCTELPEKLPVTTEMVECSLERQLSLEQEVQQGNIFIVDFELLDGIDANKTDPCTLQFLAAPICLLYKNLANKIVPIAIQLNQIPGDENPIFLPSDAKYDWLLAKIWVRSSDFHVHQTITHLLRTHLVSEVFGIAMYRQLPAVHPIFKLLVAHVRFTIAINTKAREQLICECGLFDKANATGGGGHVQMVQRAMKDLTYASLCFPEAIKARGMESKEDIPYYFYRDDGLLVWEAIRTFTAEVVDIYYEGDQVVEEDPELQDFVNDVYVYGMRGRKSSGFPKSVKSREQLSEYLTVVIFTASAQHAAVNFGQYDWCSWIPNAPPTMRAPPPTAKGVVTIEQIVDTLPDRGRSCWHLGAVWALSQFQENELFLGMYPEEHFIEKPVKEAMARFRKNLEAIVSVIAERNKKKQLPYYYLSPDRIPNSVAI
Description: Inhibition of 5-LOX (unknown origin) at 10 uM.

Data set [11] relates to Mus musculus. Description: Anti-inflammatory activity in Mus musculus Swiss albino (mouse) assessed as inhibition of carrageenan-induced edema at 100 mg/kg, po pretreated 60 min before carrageenan-challenge measured after 90 min. Format: functional.
The subject of data set [12] is Mus musculus. Description: Anti-inflammatory activity in Mus musculus Swiss albino (mouse) assessed as inhibition of carrageenan-induced edema at 100 mg/kg, po pretreated 60 min before carrageenan-challenge measured after 270 min. Format: functional.
In data set [13] the test system is Mus musculus. Description: Anti-inflammatory activity in Mus musculus Swiss albino (mouse) assessed as inhibition of carrageenan-induced edema at 100 mg/kg, po pretreated 60 min before carrageenan-challenge measured after 360 min. Format: functional.

This note sets out measurements from ChEMBL document CHEMBL3045772, “Amide derivatives of [6-acyl-2-benzothiazolinon-3-yl] acetic acids as potential analgesic and anti-inflammatory compounds” (Med Chem Res, 2010).

One may read the inhibition in vivo as the percentage by which the read-out fell short of the control. Usually inhibition stands for the percentage by which the read-out fell short of the control.

Activity calls are given as the source filed them. The rule behind the calls is not given here.

Chain of Prostaglandin G/H synthase 1 (Homo sapiens) (P23219 whole entry): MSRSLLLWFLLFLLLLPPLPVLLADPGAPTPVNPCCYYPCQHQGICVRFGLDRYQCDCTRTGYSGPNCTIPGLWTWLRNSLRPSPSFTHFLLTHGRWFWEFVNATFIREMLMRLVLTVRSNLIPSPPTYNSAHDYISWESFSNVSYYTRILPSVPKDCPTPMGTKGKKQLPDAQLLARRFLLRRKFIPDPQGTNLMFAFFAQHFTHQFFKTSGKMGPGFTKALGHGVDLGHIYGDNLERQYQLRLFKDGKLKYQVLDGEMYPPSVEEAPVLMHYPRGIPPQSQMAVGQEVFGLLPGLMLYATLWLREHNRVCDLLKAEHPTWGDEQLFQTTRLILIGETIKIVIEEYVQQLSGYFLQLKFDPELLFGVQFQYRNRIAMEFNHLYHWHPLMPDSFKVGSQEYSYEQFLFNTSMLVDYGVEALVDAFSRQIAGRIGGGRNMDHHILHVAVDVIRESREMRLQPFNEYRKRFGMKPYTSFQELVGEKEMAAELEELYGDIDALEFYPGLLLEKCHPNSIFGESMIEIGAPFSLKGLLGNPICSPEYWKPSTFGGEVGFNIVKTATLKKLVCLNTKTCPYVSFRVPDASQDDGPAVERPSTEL

For `COc1ccc2c(c1)c(CC(=O)O)c(C)n2C(=O)c1ccc(Cl)cc1` [INDOMETHACIN], the inhibition in vivo at 10 mg/kg in the data set on Mus musculus [1] came to 30.7%; with Mus musculus [2] it was 25.4%; in the data set on Mus musculus [3], 40.1%; in the data set with Mus musculus [4], 36.2%.
On to `O=C(Cn1c(=O)sc2cc(C(=O)c3ccccc3F)ccc21)Nc1ccccc1`, for which the inhibition in vivo at 100 mg/kg with Mus musculus [5] was determined as 23.5%; in the data set on Mus musculus [7] it was 26.8%; with Mus musculus [11] it was 11.3%; in the data set on Mus musculus [12] it was 22.6%; with Mus musculus [13], 19.5%. In addition, the inhibition entry in data set [6] was “inactive”. The Activity result with Mus musculus [8] is recorded as “Non-toxic”. Besides, the inhibition was found to be 5.61% in data set [9] and 24% in data set [10].
Regarding `O=C(Cn1c(=O)sc2cc(C(=O)c3ccccc3F)ccc21)Nc1ccccn1`, the inhibition result (in the data set on Mus musculus [5]; in data set [6]; in [10]; in the data set on Mus musculus [11]; with Mus musculus [12]; with Mus musculus [13]) was “inactive” each time. For the same compound, in the data set with Mus musculus [7], the inhibition in vivo at 100 mg/kg worked out at 18.7%. Also, in the data set with Mus musculus [8], the Activity result is listed as “Non-toxic”. The inhibition in [9] amounted to 17.8%.
For the compound `O=C(Cn1c(=O)sc2cc(C(=O)c3ccccc3F)ccc21)Nc1cccc(Cl)c1`, the inhibition in vivo at 100 mg/kg in the data set on Mus musculus [5] is 18.4%; in the data set on Mus musculus [7], 49.9%; with Mus musculus [11], 15.8%; in the data set with Mus musculus [12], 25.5%; in the data set with Mus musculus [13] it was 28.2%. Further, the inhibition in data set [6] came to 19.3%; in data set [9] it was 20.5%; in [10], 31%. In addition, the Activity result in the data set on Mus musculus [8] is “Non-toxic”.
As to `O=C(Cn1c(=O)sc2cc(C(=O)c3ccccc3Cl)ccc21)Nc1cccc(Cl)c1`, the inhibition in vivo at 100 mg/kg in the data set on Mus musculus [5] stood at 22%; in the data set on Mus musculus [7], 41.8%; in the data set with Mus musculus [11], 23.9%; in the data set on Mus musculus [12] it was 30.4%; in the data set with Mus musculus [13], 31.3%. Also, in [6], the inhibition entry is “inactive”. For the same compound, the Activity result in the data set on Mus musculus [8] is reported as “Non-toxic”. Besides, the results for the inhibition in data set [9] and in data set [10] were 7.27% and 35%, respectively.
